{"source": "patent US20070009568A1", "about": "“METHODS FOR IMMOBILIZING MOLECULES ON SURFACES” (priority 2005, published 2007)", "tested_on": "fibroblasts", "assay": "Fibroblast attachment to tresylated titanium wire grafted with P-15", "assay_type": "cell-based", "details": "then P-15 1 mg/ml in 100 mM phosphate buffer pH 7.4 overnight, compared with control wire not exposed to P-15", "description": "In this Example, titanium wire was treated with tresylation and attachment of P-15, followed by exposure to fibroblasts. The titanium wire was washed thoroughly in ethanol, then soaking in a 0.1 N NaOH solution for 15 minutes, followed by washing 10× with DI H2O. The surface was then rinsed in full strength H2O2, then soaked in 50% H2O2 overnight. The wire was then placed in a tresylation reaction mixture of trifluoroethanesulfonyl chloride (200 ul), pyridine (1.0 ml), and tetrahydrofuran (20 ml) overnight, followed by washing in DI H2O. The surface was then placed in a solution containing P-15 1 mg/ml in 100 mM phosphate buffer, pH 7.4, overnight. Following this treatment, the wire was again rinsed in DI H2O, then placed in a cell culture which contained fibroblasts that had been fluorescently labeled for 24 hours.\nAs a control, a second titanium wire was treated identically to the first wire, described above, except that it was not exposed to P-15 before being exposed to the fluorescently-labeled cells.", "note": "“Also recorded” adds a separate entry of the source.", "data": [{"substance": "G-T-P-G-P-Q-G-I-A-G-Q-R-G-V-V (GTPGPQGIAGQRGVV) [P-15, collagen receptor agonist]", "values": [{"measurement": "attachment of fluorescently labeled fibroblasts to the wire (photomicrographs, FIG. 1)", "result": "increased fibroblast binding; also recorded: far more attached cells"}]}]}
